In ChEMBL document CHEMBL5226386, “Discovery and Biosynthesis of Glycosylated Cycloheximide from a Millipede-Associated Actinomycete” (J Nat Prod, 2023):
Converted amounts (≈) assume the structure as drawn.

Legend:
MCF7 = assay: Cytotoxicity against human MCF7 cells assessed as reduction in cell viability incubated for 48 hrs by CCK-8 assay; assay type: functional, cell-based; conditions: MCF7, 48 h
A549 = assay: Cytotoxicity against human A549 cells assessed as reduction in cell viability incubated for 48 hrs by CCK-8 assay; assay type: functional, cell-based; conditions: A549, 48 h
HeLa = assay: Cytotoxicity against human HeLa cells assessed as reduction in cell viability incubated for 48 hrs by CCK-8 assay; assay type: functional, cell-based
Cryptococcus neoformans = assay: Antifungal activity against Cryptococcus neoformans H99 assessed as inhibition of fungal growth incubated for 24 hrs by agar diffusion method; assay type: functional
Saccharomyces cerevisiae = assay: Antifungal activity against Saccharomyces cerevisiae BY4741 assessed as inhibition of fungal growth incubated for 24 hrs by agar diffusion method; assay type: functional

Row | Structure (SMILES) | IC50 (MCF7) [µM] | IC50 (A549) [µM] | IC50 (HeLa) [µM] | MIC (Cryptococcus neoformans) [µg/mL] | MIC (Saccharomyces cerevisiae) [µg/mL]
1 | C[C@@H]1C/C(=C\CC2CC(=O)NC(=O)C2)C(=O)[C@@H](C)C1 | > 20 | > 20 | > 20 | > 32 | > 32
2 | Cc1cc(C)c(O[C@@H]2O[C@@H](C)[C@H](O)[C@@H](O)[C@H]2O)c(C(=O)CC2CC(=O)NC(=O)C2)c1 | > 20 | > 20 | > 20 | > 32 | > 32
3 | C[C@@H]1C[C@@H]([C@@H](CC2CC(=O)NC(=O)C2)O[C@H]2O[C@H](CO)[C@@H](O)[C@H](O)[C@H]2O)C(=O)[C@@H](C)C1 | > 20 | > 20 | > 20 | > 32 | > 32
4 | C[C@@H]1C[C@@H]([C@H](O)CC2CC(=O)NC(=O)C2)C(=O)[C@@H](C)C1 [CYCLOHEXIMIDE] | 0.53 | 0.67 | 1 | 2 (≈ 7.11 µM) | 2 (≈ 7.11 µM)
5 | COc1cccc2c1C(=O)c1c(O)c3c(c(O)c1C2=O)C[C@@](O)(C(=O)CO)C[C@@H]3O[C@H]1C[C@H](N)[C@H](O)[C@H](C)O1 [DOXORUBICIN] | 0.97 | 0.6 | 0.09 | – | –
